This note sets out measurements from PubChem BioAssay (NCI).

Structures are written as SMILES.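 A five-concentration, 48-hour dose response in 96-well plates underlies each endpoint, interpolated linearly between surrounding concentrations. Definition used: TGI = concentration required for complete inhibition of growth.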

Some test systems named below: CAKI-1 renal; EKVX NSCLC; HS 578T breast; LOX IMVI melanoma; NCI-H226 lung; RPMI-8226 leukemia; SR leukemia; UO-31 renal.
Experiment in all cases: NCI anticancer screen, dose series, 48 h

With `CCN(CC)c1c(N(CC)CC)c(=O)c1=O`, the TGI in the assay with CAKI-1 renal was 9.62 µM; in the assay with EKVX NSCLC, 28.6 µM; in the assay on HS 578T breast, 59.9 µM; in the assay on LOX IMVI melanoma, 25.8 µM; in the assay with NCI-H226 lung, 30.9 µM; in the assay on RPMI-8226 leukemia it was 4.91 µM. For the same compound, the TGI in the assay with SR leukemia is greater than 100 µM; in the assay on UO-31 renal, 12 µM.

Take `Cc1cc(C)c(S(=O)(=O)N2CCCN(S(=O)(=O)c3c(C)cc(C)cc3C)OCCCON(S(=O)(=O)c3c(C)cc(C)cc3C)CCCN(S(=O)(=O)c3c(C)cc(C)cc3C)OCCCO2)c(C)c1`: the TGI with CAKI-1 renal, in the assay on EKVX NSCLC, in the assay on HS 578T breast, in the assay with LOX IMVI melanoma, with NCI-H226 lung and with RPMI-8226 leukemia was greater than 100 µM each time. Besides, the TGI in the assay with SR leukemia and with UO-31 renal was greater than 100 µM in each case.

As for `Cc1ccc(/C=N/n2c(=O)[nH]c3ccccc3c2=O)cc1`, the TGI in the assay on CAKI-1 renal, in the assay on EKVX NSCLC, with HS 578T breast, with LOX IMVI melanoma, in the assay with NCI-H226 lung and in the assay on RPMI-8226 leukemia was greater than 100 µM in each case. The TGI with SR leukemia and in the assay on UO-31 renal was greater than 100 µM throughout.

For `O=S(=O)(c1ccccc1)n1c2cc3cccnc3nc2c2cccnc21`, the TGI is greater than 100 µM with CAKI-1 renal; greater than 100 µM in the assay on EKVX NSCLC; greater than 100 µM with HS 578T breast; greater than 100 µM in the assay on LOX IMVI melanoma; greater than 100 µM in the assay with NCI-H226 lung; 56.6 µM in the assay with RPMI-8226 leukemia. For the same compound, the TGI in the assay on SR leukemia is 30.4 µM; in the assay on UO-31 renal, greater than 100 µM.

For the compound `COc1ccc(CC2c3cc(Oc4cc(CC5c6cc(OC)c(OC)cc6CCN5C)ccc4O)c(OC)cc3CCN2C)cc1` (stereo not drawn), the TGI in the assay with CAKI-1 renal came to 9.99 µM; with EKVX NSCLC, 15.9 µM; in the assay on HS 578T breast, 19.3 µM; with LOX IMVI melanoma, 10.7 µM; in the assay on NCI-H226 lung it was 18.6 µM; in the assay on RPMI-8226 leukemia it was 10.1 µM. The TGI was 4.6 µM in the assay on SR leukemia and 11.2 µM in the assay with UO-31 renal.

On to `COc1ccc(C(C)NNC(=O)c2ccncc2)c(OC)c1` (stereo not drawn), for which the TGI in the assay with CAKI-1 renal, with EKVX NSCLC, in the assay on HS 578T breast, with LOX IMVI melanoma, in the assay on NCI-H226 lung and in the assay with RPMI-8226 leukemia was greater than 100 µM in each case. The TGI with SR leukemia and in the assay with UO-31 renal was greater than 100 µM each time.

Turning to `O=C1N=c2ccccc2=C1c1c(O)[nH]c2ccccc12`, the TGI in the assay on CAKI-1 renal is greater than 100 µM; in the assay on EKVX NSCLC, 71.6 µM; in the assay on HS 578T breast, greater than 100 µM; with LOX IMVI melanoma, 49.9 µM; with NCI-H226 lung it was greater than 100 µM; with RPMI-8226 leukemia, greater than 100 µM. Moreover, the values for the TGI in the assay with SR leukemia and with UO-31 renal were 17.8 µM and 30.5 µM, respectively.

As for `CC1(CCCO)CCCCCC(C)(CCCO)C1=O` (stereo not drawn), the TGI in the assay on CAKI-1 renal, with EKVX NSCLC, in the assay on HS 578T breast, in the assay on LOX IMVI melanoma, in the assay with NCI-H226 lung and in the assay with RPMI-8226 leukemia was greater than 100 µM in each case. The TGI in the assay on SR leukemia and in the assay with UO-31 renal was greater than 100 µM each time.

Regarding `CCC(=O)NC(Nc1cccc(F)c1C)(C(F)(F)F)C(F)(F)F`, the TGI in the assay on CAKI-1 renal, in the assay with EKVX NSCLC, in the assay with HS 578T breast, in the assay with LOX IMVI melanoma, in the assay on NCI-H226 lung and with RPMI-8226 leukemia was greater than 100 µM throughout. The TGI with SR leukemia and in the assay on UO-31 renal was greater than 100 µM in each case.

Turning to `C[C@@H]1C[C@H]2[C@@H]3CCC4=CC(=O)C=C[C@]4(C)[C@@]3(Cl)[C@@H](Cl)C[C@]2(C)[C@@]1(O)C(=O)COP(=O)(O)O`, the TGI in the assay on CAKI-1 renal, with EKVX NSCLC, with HS 578T breast, with LOX IMVI melanoma, in the assay on NCI-H226 lung and in the assay on RPMI-8226 leukemia was greater than 100 µM throughout. In addition, the TGI in the assay with SR leukemia and in the assay with UO-31 renal was greater than 100 µM each time.

As to `C[C@]12CC[C@H](O)CC1=CC[C@@H]1[C@@H]2CC[C@]2(C)C(=O)[C@@H](N3CCOCC3)C[C@@H]12`, the TGI in the assay on CAKI-1 renal, in the assay on EKVX NSCLC, with HS 578T breast, in the assay on LOX IMVI melanoma, with NCI-H226 lung and in the assay on RPMI-8226 leukemia was greater than 100 µM throughout. The TGI with SR leukemia and with UO-31 renal was greater than 100 µM throughout.

On to `CC(=O)OCCn1cnc2nc(Nc3ccccc3)nc(Cl)c21`, for which the TGI with EKVX NSCLC, in the assay with HS 578T breast, with LOX IMVI melanoma, in the assay with NCI-H226 lung, with RPMI-8226 leukemia and in the assay on SR leukemia was greater than 100 µM each time.

As for `S=C(c1c[nH]c2ccccc12)N1CCOCC1`, the TGI with CAKI-1 renal, with EKVX NSCLC, with HS 578T breast, in the assay with LOX IMVI melanoma, with NCI-H226 lung and with RPMI-8226 leukemia was greater than 100 µM throughout. The TGI in the assay with SR leukemia and in the assay with UO-31 renal was greater than 100 µM in each case.

Regarding `CC(=O)OCc1cc(CCC(=O)NCCNc2c3ccccc3nc3ccccc23)cc(COC(C)=O)c1O[Si](C)(C)C(C)(C)C`, the TGI amounted to 36.1 µM in the assay with EKVX NSCLC; 13.9 µM with HS 578T breast; 3.58 µM in the assay with LOX IMVI melanoma; 4.72 µM with NCI-H226 lung; 5.77 µM with RPMI-8226 leukemia; 4.91 µM in the assay on SR leukemia. The compound further yielded a TGI with UO-31 renal of 31.1 µM.

As to `COc1ccc2nc3ccc(OC)cc3c(S(=O)CCCl)c2c1` (stereo not drawn), the TGI with CAKI-1 renal is 6.9 µM; in the assay on EKVX NSCLC, 25.6 µM; in the assay with HS 578T breast, 6.02 µM; in the assay with LOX IMVI melanoma, 6.81 µM; with NCI-H226 lung, 33.9 µM; in the assay with RPMI-8226 leukemia, 4.9 µM. In the assay with SR leukemia, this compound returned a TGI greater than 22.7 µM.

Take `Cc1nc2ccccc2c(=O)n1NC(=O)c1ccc(CS)cc1`: the TGI in the assay with EKVX NSCLC is 66.2 µM; in the assay on HS 578T breast, 95.4 µM; in the assay with LOX IMVI melanoma, 0.401 µM; in the assay with NCI-H226 lung, 14.2 µM; in the assay with RPMI-8226 leukemia it was greater than 100 µM; in the assay on SR leukemia it was 43.1 µM. This compound returned a TGI in the assay on UO-31 renal of 29.9 µM.
